Source: PMC4128046, “Effect of a toggle switch mutation in TM6 of the human adenosine A3 receptor on Gi protein-dependent signalling and Gi-independent receptor internalization” (British Journal of Pharmacology, 2014)

Experiments:
Type in all cases: cell-based
[1] = molecular target: T1, A3 W243F-YFP (Homo sapiens, UniProt P0DMS8, W243F); test: CRE-SPAP gene transcription assay, A3 W243F-YFP; conditions: A3 W243F-YFP cells
T1 construct: Full length A3 W243F-YFP was excised and subcloned into a native pcDNA3.1 vector; expressed in transfected cells
T1 sequence (P0DMS8 1-318 W243F): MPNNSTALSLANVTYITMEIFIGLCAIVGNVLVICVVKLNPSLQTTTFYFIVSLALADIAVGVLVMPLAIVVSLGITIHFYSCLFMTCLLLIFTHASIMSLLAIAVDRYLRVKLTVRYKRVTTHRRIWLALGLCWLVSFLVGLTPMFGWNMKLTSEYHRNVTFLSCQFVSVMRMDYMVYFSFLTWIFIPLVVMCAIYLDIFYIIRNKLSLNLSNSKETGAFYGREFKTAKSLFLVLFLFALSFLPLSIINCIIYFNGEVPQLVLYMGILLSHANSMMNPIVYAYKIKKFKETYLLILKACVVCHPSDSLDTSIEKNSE
Procedure: One day before analysis, normal growth medium was removed from the cells and replaced with serum-free medium (DMEM/F12 containing 2 mM L-glutamine). Where applicable, PTx (100 ng·mL^−1) was added at this stage. On the day of the assay, the medium was removed and replaced with fresh serum-free medium containing the required concentration of the agonist, and cells were incubated for 1 h at 37°C/5% CO2. After 1 h, the required concentration of forskolin (FSK) was added, and cells were incubated for a further 5 h at 37°C/5% CO2. Following the 5 h incubation, all medium was removed from the cells, 40 μL of fresh serum-free medium was added to each well and cells incubated for a further 1 h at 37°C/5% CO2. The plates were then incubated at 65°C for 30 min, to destroy any endogenous alkaline phosphatases. Plates were cooled to room temperature and 100 μL of 5 mM 4-nitrophenyl phosphate in diethanolamine-containing buffer [10% (v v^−1) diethanolamine, 280 mM NaCl, 500 μM MgCl2, pH 9.85] was added to each well; the plates were then incubated at 37°C for 25 min. The absorbance at 405 nm was measured using a Dynex MRX plate reader (Chelmsford, MA, USA).
(§1) A basal and FSK control was included in each separate concentration-response CRE-SPAP gene transcription assay and cAMP accumulation assay to allow the responses in each cell line to be expressed as an inhibition of FSK-stimulated SPAP production.

[2] = molecular target: T2, human A3 receptor W243F mutant fused to YFP (A3 W243F-YFP) (Homo sapiens, UniProt P0DMS8, W243F); test: Automated imaging of receptor internalization (granularity analysis), A3 W243F-YFP; conditions: A3 W243F-YFP cells
T2 construct: Full length A3 W243F-YFP was excised and subcloned into a native pcDNA3.1 vector; expressed in transfected cells
T2 sequence (P0DMS8 1-318 W243F): T1 sequence (P0DMS8 1-318 W243F)
Source text: Immediately before experimentation, normal growth medium was replaced with serum-free medium. […] Medium was removed and cells were washed once in PBS. […] Images were obtained using an ImageXpress Ultra confocal plate reader (Molecular Devices, Sunnyvale, CA, USA). Four central images were obtained per well using a Plan Fluor 40x NA0.6 extra-long working distance objective. BiFC and YFP images were obtained by excitation with a 488 nm laser line with emission collected through a 525-550 nm band pass filter and H33342 images obtained by excitation with a 405 nm laser line and emission collected through a 447-460 nm band pass filter. Granularity analysis was performed on the resulting images using a granularity algorithm within MetaXpress software (Molecular Devices, Sunnyvale, CA, USA) and intensity above background was set for each individual experiment (Kilpatrick et al., [2010]). Areas of internalized receptors were identified by granularity analysis; granules were defined as having a diameter of between 7 and 15 μm and nuclei as having a diameter of between 6 and 9 μm, resulting in a measurement of the granule count per cell for each image. A basal and FSK control was included in each separate concentration-response CRE-SPAP gene transcription assay and cAMP accumulation assay to allow the responses in each cell line to be expressed as an inhibition of FSK-stimulated SPAP production. […] All data were fitted using non-linear regression in Prism 5 (GraphPad Software, San Diego, CA, USA). […] Statistical significance was determined by Student's unpaired t-test or by one-way ANOVA with Dunnett's post hoc analysis and P < 0.05 was considered statistically significant.

[3] = molecular target: T1, A3 W243F-YFP; test: Confocal imaging of receptor internalization and membrane YFP fluorescence, A3 W243F-YFP; conditions: A3 W243F-YFP cells, 10 μM agonist
Procedure: Live-cell BiFC imaging was performed on A3-vYc/β-arrestin2-vYnL and A3 W243F-vYc/β-arrestin2-vYnL cells grown in Nunc Labtek 8-well plates, and images obtained using a Zeiss 710 confocal microscope (Carl Zeiss GmbH, Jena, Germany) fitted with a 63× plan-Apochromat NA1.4 Ph3 oil-immersion objective. Live-cell imaging analysis was performed on A3-YFP or A3 W243F-YFP CRE-SPAP cells and transiently expressed SNAP-A3 or SNAP-A3 W243F grown in Nunc Labtek 8-well plates, and images obtained using a Zeiss LSM5 Exciter confocal microscope (Carl Zeiss GmbH) fitted with a 63× plan-Apochromat NA1.4 DIC oil-immersion objective. For both YFP, BiFC and BG-AF488 label, a 488 nm argon laser was used to excite the fluorophore and emission was detected using a BP505-530 filter. Cells expressing the SNAP-tagged receptors were labelled with 1 μM SNAP-surface BG-AF488 (New England Biolabs) in DMEM/F12 medium for 30 min at 37°C/5% CO2. Before all imaging experiments, normal growth medium or medium containing BG-AF488 was removed and cells were washed twice in HEPES-buffered saline solution (HBSS; 25 mM HEPES, 10 mM glucose, 146 mM NaCl, 5 mM KCl, 1 mM MgSO4, 2 mM sodium pyruvate, 1.3 mM CaCl2) and fresh HBSS was added for analysis. […] Images of A3-YFP and A3 W243F-YFP cells were taken with same pinhole diameter, laser power, gain and offset to allow comparison of YFP fluorescence. To obtain fluorescence intensity values, a region of interest was drawn around the plasma membrane of 10 cells per image in Zeiss AIM 4.2 software (Carl Zeiss GmbH).

[4] = molecular target: T1, A3 W243F-YFP; test: [3H]-cAMP accumulation assay, A3 W243F-YFP; conditions: for inhibition of FSK-stimulated [3H]-cAMP accumulation after 5 h agonist stimulation / Emax: A3 W243F-YFP cells; for inhibition of FSK-stimulated [3H]-cAMP accumulation after 5 h agonist stimulation: 5 h stimulation, compared with 1 h; for Emax: read-out: Maximum response (% inhibition of 3 μM FSK), cAMP accumulation assay, 1 h stimulation
Procedure: On the day of analysis, cells were labelled with [^3H]-adenine (2 μCi·mL^−1) in a total volume of 600 μL per well for 2 h at 37°C/5% CO2 in normal growth medium. After 2 h, the [^3H]-adenine-containing medium was removed; cells washed once in serum-free medium and fresh serum-free medium, containing 10 μM rolipram, added. […] […] The assay was terminated by the addition of 50 μL concentrated HCl to each well. The levels of [^3H]-cAMP incorporated were measured by sequential Dowex and alumina chromatography and the efficiency of each column was determined by the recovery of [^14C]-cAMP as described by Donaldson et al. ([1988]).
as §1

Compound | agonist-mediated inhibition of SPAP production after PTx pre-incubation ([1]; PTx 100 ng·mL−1 overnight, 3 μM FSK) | SPAP production in the absence of FSK (Gs coupling) ([1]; no FSK, with or without PTx) | Emax ([1]; read-out: Maximum response (% inhibition of 10 μM FSK), CRE-SPAP assay) [%] | Maximal internalization (%) ([2]; percentage of internalization with 10 μM NECA in the cell line) | internalization of the receptor seen in confocal images [3] | inhibition of FSK-stimulated [3H]-cAMP accumulation after 5 h agonist stimulation [4] | Emax [4] [%] | Maximum response (% inhibition of 10 μM FSK), CRE-SPAP assay [1] | maximum inhibition of SPAP production in response to 3 μM FSK ([1]; 5 h stimulation, 3 μM FSK) | effect of pretreatment on NECA-mediated internalization ([2]; 10 μM HEMADO 30 min before NECA 45 min) | accumulation of internalized receptor after 2 h stimulation ([2]; 10 μM agonist, 2 h) | reduction in membrane fluorescence [3] | EC50 ([4]; read-out: pEC50 (cAMP accumulation assay) (converted)) [nM]
CCNC(=O)[C@H]1O[C@@H](n2cnc3c(N)ncnc32)[C@H](O)[C@@H]1O [NECA, 5-(N-ethylcarboxamido)adenosine] | abolished | no increase in SPAP production | 34.8 ± 6.7 | 100 | rapid internalization | reduced the maximal inhibition | 49.7 ± 2 | – | – | – | – | – | –
CCCCC#Cc1nc(NC)c2ncn([C@@H]3O[C@H](CO)[C@@H](O)[C@H]3O)c2n1 [HEMADO, 2-(1-hexynyl)-N-methyladenosine] | – | – | – | – | unable to stimulate internalization | very little inhibition | 43.2 ± 4.3 | No inhibition | no significant decrease | virtually abolished | no accumulation of internalized receptor could be detected | no significant change | 9.55
